Laboratory results published in article PMC8802628, “Selective activation of PFKL suppresses the phagocytic oxidative burst” (Cell, 2021).

Key:
[1] = test system: human bronchial epithelial cells (HBECs); experiment: Epithelial barrier tissue damage assay (FITC-dextran); assay type: cell-based; details: PMA-activated neutrophils on HBECs
Procedure: Human bronchial epithelial cells (HBECs) (4 × 10^4 in […] complete PneumaCult-Ex plus medium) were added to a HTS Transwell-96 permeable support plate (polyester membrane with a 0.4 μm pores) and immersed in receiver plates containing 150 μL of complete PneumaCult-Ex plus medium for 3 days. The medium on confluent monolayers was then replaced with RPMI medium containing neutrophils (4 × 10^4) in RPMI buffer that were previously treated with 5 μM NA-11, 100 μM apocynin, 5 μM NA-4, or DMSO vehicle and then activated with 100 nM PMA. The transwell plate was cultured in a new receiver plate containing 150 μL Hank’s balanced salt solution (HBSS) for 2 h. 10 μL of DMEM supplemented with 5% FBS and 2 mM L-glutamine were added to each well and the plate was incubated for additional 18 h. To measure the permeability of the epithelial barrier, FITC-dextran (200 μg/mL) and DNase-1 (22 Units/mL) were added to the apical side for 1 h. FITC-dextran in the receiver plate was measured (ex: 494 em: 521).

PFKL = biological target: T1, PFKL (Homo sapiens, UniProt P17858); experiment: Thermal inactivation assay of PFKL; assay type: biochemical; details: 35°C; 200 μM FBP, 200 nM NA-11
T1 construct: made in house; host or cells: Sf9 insect cells (baculovirus, Bac-to-Bac)
T1 sequence (P17858 1-780): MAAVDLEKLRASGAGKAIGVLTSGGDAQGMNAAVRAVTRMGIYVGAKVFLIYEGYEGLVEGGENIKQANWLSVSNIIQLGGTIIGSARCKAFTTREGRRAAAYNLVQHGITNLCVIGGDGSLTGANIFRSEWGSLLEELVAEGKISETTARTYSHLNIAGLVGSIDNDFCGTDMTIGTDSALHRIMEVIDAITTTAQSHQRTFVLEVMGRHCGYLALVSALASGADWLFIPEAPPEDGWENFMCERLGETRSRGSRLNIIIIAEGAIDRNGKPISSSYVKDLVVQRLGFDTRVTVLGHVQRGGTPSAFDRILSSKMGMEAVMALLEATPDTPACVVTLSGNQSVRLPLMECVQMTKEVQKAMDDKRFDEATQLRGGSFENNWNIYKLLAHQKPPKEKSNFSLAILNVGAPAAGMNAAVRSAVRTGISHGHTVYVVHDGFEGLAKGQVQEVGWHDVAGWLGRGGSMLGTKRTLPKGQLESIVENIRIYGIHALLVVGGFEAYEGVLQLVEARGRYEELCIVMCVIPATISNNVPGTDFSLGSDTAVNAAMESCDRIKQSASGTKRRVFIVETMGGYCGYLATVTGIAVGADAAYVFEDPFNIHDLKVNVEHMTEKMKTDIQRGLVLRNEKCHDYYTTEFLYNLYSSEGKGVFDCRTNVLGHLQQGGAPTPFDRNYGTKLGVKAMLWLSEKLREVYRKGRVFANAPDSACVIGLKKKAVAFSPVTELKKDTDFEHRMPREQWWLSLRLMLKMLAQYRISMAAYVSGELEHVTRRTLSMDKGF
Procedure: Thermal inactivation assays were performed as previously described for PFKP, with modifications to account for the decreased stability of PFKL ([Sánchez-Martínez et al., 2000]). PFKL was diluted to 10 ng/mL, with a final buffer composition of 53.3 mM HEPES, 100 mM KCl, 0.167 mM DTT, 83.3 μM ammonium sulfate, 0.83% glycerol, 0.170 mM ATP, and 16.7 mM EDTA. Samples were incubated at 35°C. At the times indicated, samples were removed and residual PFK1 activity measured using the PK/LDH auxiliary enzyme assay described above with 125 μM ATP and 5 mM F6P. To determine if small molecule ligands altered PFKL stability, 200 μM FBP and 200 nM NA-11 were added.

GSDMD = biological target: T2, GSDMD (Homo sapiens, UniProt P57764); experiment: Recombinant GSDMD cleavage by caspase-4; assay type: biochemical; details: 10 μM
T2 sequence (P57764 1-484): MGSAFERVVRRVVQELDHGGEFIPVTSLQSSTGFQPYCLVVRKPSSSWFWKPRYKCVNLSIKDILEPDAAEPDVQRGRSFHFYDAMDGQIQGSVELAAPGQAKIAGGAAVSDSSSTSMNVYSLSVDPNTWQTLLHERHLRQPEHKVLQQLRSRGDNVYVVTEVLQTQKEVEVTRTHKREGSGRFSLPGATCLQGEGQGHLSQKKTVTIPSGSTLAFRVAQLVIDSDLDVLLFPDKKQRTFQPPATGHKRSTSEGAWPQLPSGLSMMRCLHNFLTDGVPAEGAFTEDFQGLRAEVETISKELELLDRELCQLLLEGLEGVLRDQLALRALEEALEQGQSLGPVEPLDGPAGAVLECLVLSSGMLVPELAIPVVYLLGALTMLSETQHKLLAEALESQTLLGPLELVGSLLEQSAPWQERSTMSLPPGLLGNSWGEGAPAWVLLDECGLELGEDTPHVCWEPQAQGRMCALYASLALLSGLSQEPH
Procedure: 1 μg recombinant GSDMD ([Aglietti et al., 2016]) was incubated with 10 μM LDC7559, 30 μM zVAD-fmk, or DMSO vehicle for 20 min, and then combined with 0.15 μg recombinant caspase-4 (750 mU; Abcam) in 20 μL of 50 mM HEPES, pH 7.2, 50 mM NaCl, 0.1% Chaps, 10 mM EDTA and 5% glycerol for 30 min at 37°C.

SMILES	protection of epithelial layer from neutrophil-induced oxidative damage [1]	protection of PFKL from thermal inactivation (PFKL)	cleavage of recombinant GSDMD by caspase-4 (GSDMD)
CC(=O)Nc1ccc2c(c1)OCc1cc(-c3ccccc3C#CCCCO)nn1C2 [NA-11]	protected the epithelial layer	did not	
COc1ccccc1-c1cc2n(n1)Cc1ccc(NC(C)=O)cc1OC2 [LDC7559, reference compound]			did not inhibit cleavage of recombinant GSDMD by caspase-4
